Test systems include T-47D breast; MOLT-4 leukemia; OVCAR-3 ovarian; SF-268 CNS; SN12C renal; SK-MEL-28 melanoma; HCC-2998 colon; KM12 colon; HS 578T breast; HCT-15 colon.
Experiment in all cases: NCI-60 cell line screen, 48 h

Results on ten molecules are retold here after PubChem BioAssay (NCI).

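Grown in 96-well plates, cells were treated for 48 hours with each compound at five concentrations. Insufficient inhibition: endpoint recorded as highest concentration tested. TGI: total growth inhibition.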

In the case of `O=C1O[C@]2(c3ccccc3)C(c3ccccc3)=C[C@]2(C(=O)c2ccccc2)C1=O`, the TGI in the experiment with T-47D breast was > 100 µM; in the experiment with MOLT-4 leukemia it was 22.3 µM; in the experiment on OVCAR-3 ovarian, > 100 µM; with SF-268 CNS, > 100 µM; with SN12C renal, > 100 µM; with SK-MEL-28 melanoma it was > 100 µM. Besides, the TGI in the experiment on HCC-2998 colon is 39.2 µM; in the experiment with KM12 colon, > 100 µM; with HS 578T breast, > 100 µM; in the experiment with HCT-15 colon, > 100 µM.

For `CC(=N\N=C\c1ccccn1)/C(C)=N/N=C(C)/C(C)=N/N=C(C)/C(C)=N/N=C/c1ccccn1`, the TGI in the experiment on T-47D breast, in the experiment on MOLT-4 leukemia, with OVCAR-3 ovarian, in the experiment on SF-268 CNS, in the experiment with SN12C renal and in the experiment on SK-MEL-28 melanoma was > 100 µM each time. Moreover, the TGI in the experiment on HCC-2998 colon, in the experiment with KM12 colon, in the experiment on HS 578T breast and in the experiment with HCT-15 colon was > 100 µM throughout.

For `C[C@H](CCC1=NCCN1)[C@H]1CC[C@H]2[C@@H]3CC[C@@H]4C[C@H](O)CC[C@]4(C)[C@H]3C[C@H](O)[C@]12C`, the TGI with T-47D breast worked out at 30.6 µM; in the experiment with MOLT-4 leukemia, 16.1 µM; with OVCAR-3 ovarian, 24.5 µM; in the experiment with SF-268 CNS it was 20.5 µM; with SN12C renal, 34 µM; in the experiment with SK-MEL-28 melanoma it was 34.6 µM. The TGI was 27.6 µM in the experiment with HCC-2998 colon, 24.1 µM with KM12 colon, 27.8 µM in the experiment with HS 578T breast and > 100 µM in the experiment on HCT-15 colon.

`Nc1c(S(=O)(=O)O)cc(Nc2cccc(S(=O)(=O)/C=C/S(=O)(=O)O)c2)c2c1C(=O)c1ccccc1C2=O`: the TGI with T-47D breast, in the experiment on MOLT-4 leukemia, in the experiment on OVCAR-3 ovarian, in the experiment on SF-268 CNS, with SN12C renal and with SK-MEL-28 melanoma was > 100 µM in each case. Also, the TGI in the experiment with HCC-2998 colon, in the experiment on KM12 colon, in the experiment on HS 578T breast and in the experiment with HCT-15 colon was > 100 µM in each case.

Consider `N#Cc1nc(/C=C/c2ccccc2)oc1N`, for which the TGI with T-47D breast, in the experiment with MOLT-4 leukemia, in the experiment on OVCAR-3 ovarian, in the experiment on SF-268 CNS, with SN12C renal and in the experiment on SK-MEL-28 melanoma was > 100 µM each time. In addition, the TGI with HCC-2998 colon, in the experiment on KM12 colon, in the experiment on HS 578T breast and in the experiment on HCT-15 colon was > 100 µM throughout.

Consider `c1ccc(C2=C(c3ccccc3)P(c3ccccc3)C2)cc1` (stereo not given), for which the TGI in the experiment on T-47D breast, with MOLT-4 leukemia, with OVCAR-3 ovarian, in the experiment on SF-268 CNS, with SN12C renal and in the experiment on SK-MEL-28 melanoma was > 100 µM throughout. Moreover, the TGI with HCC-2998 colon, in the experiment with KM12 colon, in the experiment on HS 578T breast and in the experiment with HCT-15 colon was > 100 µM throughout.

With `Nc1nc2cc(CNc3ccc(C(=O)NC(CCC(=O)O)C(=O)O)cc3)ccc2nc1-c1ccccc1` (stereo not given), the TGI in the experiment on T-47D breast, with MOLT-4 leukemia, in the experiment with OVCAR-3 ovarian, in the experiment on SF-268 CNS, in the experiment with SN12C renal and in the experiment with SK-MEL-28 melanoma was > 10 µM in each case. The TGI in the experiment with HCC-2998 colon, in the experiment on KM12 colon, in the experiment with HS 578T breast and in the experiment on HCT-15 colon was > 10 µM each time.

Regarding `COc1cc2c(cc1Cl)n([O-])c(C#N)c(N1CCN(c3ccc([N+](=O)[O-])cc3)CC1)[n+]2=O`, the TGI is > 81.5 µM in the experiment with T-47D breast; > 68 µM in the experiment on MOLT-4 leukemia; > 100 µM in the experiment with OVCAR-3 ovarian; > 84 µM in the experiment with SF-268 CNS; > 100 µM with SN12C renal; > 100 µM in the experiment with SK-MEL-28 melanoma. Also, the TGI in the experiment on HCC-2998 colon is 78.8 µM; in the experiment on KM12 colon, > 100 µM; in the experiment with HS 578T breast it was > 57.5 µM; in the experiment with HCT-15 colon it was > 100 µM.

Take `O=C(c1ccccc1)N1C(=S)N(c2ccc([N+](=O)[O-])cc2)C(=Nc2ccccc2)C1=Nc1ccccc1`: the TGI in the experiment on T-47D breast, in the experiment with MOLT-4 leukemia, in the experiment with OVCAR-3 ovarian, in the experiment on SF-268 CNS, with SN12C renal and in the experiment on SK-MEL-28 melanoma was > 100 µM throughout. Further, the TGI in the experiment on HCC-2998 colon, in the experiment on KM12 colon, with HS 578T breast and with HCT-15 colon was > 100 µM in each case.

Consider `CCCCCCCCC/C=C1\CC(CO)(COC(=O)c2ccccc2)OC1=O` (stereo not given), for which the TGI in the experiment on T-47D breast is 72.6 µM; in the experiment with MOLT-4 leukemia, > 100 µM; in the experiment on OVCAR-3 ovarian, 43.1 µM; in the experiment on SF-268 CNS it was 54 µM; in the experiment with SN12C renal, 49.7 µM; in the experiment with SK-MEL-28 melanoma it was 31.8 µM. In addition, the TGI was 39.3 µM in the experiment with HCC-2998 colon, 57.2 µM in the experiment on KM12 colon, 40.2 µM with HS 578T breast and 35.5 µM in the experiment with HCT-15 colon.
